Source: patent US11149071B2, “Fusion protein Slit2D2(C386S)-HSA and use thereof in prevention and/or treatment of lung inflammation” (Asclepius (Suzhou) Technology Company Group Co., Ltd., priority 2017, dated 2021)

Experiments:
[1] = test system: lipopolysaccharide-induced lung injury; assay: rat model of acute lung injury induced by airway infusion of LPS; differential cell counts in BALF; type: in vivo, Wistar rat
Description: Acute lung injury (ALI) is a systemic uncontrolled inflammatory response caused by various direct and indirect injury factors, accompanied by alveolar epithelial cells and capillary endothelial cell injury, its pathogenesis is still unclear, and there is still no effective treatment means. A rat model with airway infusion of lipopolysaccharide (LPS) is a commonly used animal model. In this study, airway infusion of LPS induced acute lung injury in rats. The animals were injected compounds via tail vein. After four hours, lung lavage and bronchoalveolar lavage fluid were collected, and differential cell were counts and measured to represent the efficacy of test compounds in preventing lipopolysaccharide-induced lung injury.
Except for group 1, all other groups were received pulmonary perfusion of lipopolysaccharide. Animals were anesthetized by 3-5% isoflurane, and 100 μl of LPS solution (1 mg/ml) was introduced into rat trachea with a micro-atomizer intubation, and after 4 hours, the animals were killed with chloral hydrate (750 mg/kg). The lungs were gently perfused three times in situ with 4 ml of PBS+1% albumin. After lavage, bronchoalveolar lavage fluid (BALF) was preserved in ice, and then the number of eosinophils (EOS), macrophages (Mac), neutrophils (Neu), lymphocytes (Lym) and the total number of cells were measured.

mouse models of asthma = mouse models of asthma (ovalbumin sensitization and aerosol challenge); BALF cell counts, Penh, BALF cytokines; type: in vivo, BALB/c mice
Description: On the first day and the 14th day of the experiment, the asthma models were sensitized by intraperitoneal injection, and the asthma group was given sensitization solution containing 20 μg of ovalbumin and 2 mg of alum suspension each time.
3.3.2 On the days 28, 29 and 30, the mice of 2-4 groups were stimulated with aerosol, which included dissolving 100 mg OVA in 10 ml PBS and adding 5 μl Triton X-100, and atomized by atomizing inhalation facility (Buxco) for 30 minutes, and then the nebulizer was turned off. Finally, the mice were kept in the inhalation box for additional 7 minutes, and following by being taken out. The negative control mice were exposed in aerosolized PBS for 30 minutes.
Group 1 (PBS control group) were injected intraperitoneally with PBS at 2 hours before PBS sensitization on the days 28, 29 and 30. Group 2 (OVA control group) were injected intraperitoneally with PBS at 2 hours before OVA sensitization on the days 28, 29 and 30. Group 3 were injected intraperitoneally with ZD018 at 2 hours before OVA sensitization on the days 28, 29 and 30. Group 4 were intragastrically administrated with dexamethasone at 2 hours before OVA sensitization on the days 28, 29 and 30.
On the 31st (24 hours after the last challenge), the Penh of mice were detected with a Buxco mouse non-invasive pulmonary function instrument. The change of Penh was determined after atomization stimulating of 300 μl doubling concentration of methacholine (Mch). The stimulating concentrations from low to high were 0, 0.78, 1.56, 3.125, 6.25, 12.5, 25 and 50 g/L, respectively. The mean value of Penh was recorded at each stimulating concentration level of Mch. The Penh value at each stimulating concentration of Mch was converted to a percentage of the Penh value at the time of the stimulating normal saline (The Penh value stimulated by Mch/The Penh value stimulated by normal saline, 100%), and represented by penh %, which was used as an evaluation index for mice airway response.
3.5 The observation of airway inflammation: the cytological examination of bronchoalveolar lavage and bronchoalveolar lavage fluid (BALF).
3.6 IL-13 and IL-5 cytokine levels in bronchoalveolar lavage fluid (BALF) were tested with Elisa Kit (R&D, USA).

[2] = test doses of 5 mg/kg, 1 mg/kg and 0.2 mg/kg i.v. 3 hours before LPS perfusion, BALF 4 hours after LPS, compared with the model group (FIG. 4)
[3] = ZD018 1 mg/kg i.p. 2 hours before OVA challenge on days 28, 29 and 30 (FIG. 6)

Slit2D2(C386S)-HSA: recombinant fusion protein of Slit2 D2 domain (cysteine at position 386 mutated to serine) and HSA, SEQ ID NO: 2
efficacy compared with Slit2D2-HSA recombinant protein ([1]; both at 5 mg/kg dose i.v. 3 hours before LPS perfusion (FIG. 4)): superior to Slit2D2-HSA recombinant protein
increase of cell number (total number of cells in BALF) [1, 2]: significantly inhibited
number of neutrophils in bronchoalveolar lavage fluid [1, 2]: significantly controlled
accumulation of eosinophils in alveolar fluid (BALF) (mouse models of asthma; ZD018 1 mg/kg i.p. 2 hours before OVA challenge on days 28, 29 and 30 (FIG. 5)): significantly inhibit
accumulation of lymphocytes in alveolar fluid (BALF) (mouse models of asthma; [3]): inhibit
accumulation of neutrophils in alveolar fluid (BALF) (mouse models of asthma; [3]): inhibit
IL-5 cytokine level in bronchoalveolar lavage fluid (BALF) (mouse models of asthma; ZD018 1 mg/kg i.p., Elisa Kit (FIG. 8)): inhibit
IL-13 cytokine level in bronchoalveolar lavage fluid (BALF) (mouse models of asthma; ZD018 1 mg/kg i.p., Elisa Kit (FIG. 9)): inhibit
enhanced pause (Penh) index stimulated by methacholine (Mch) (mouse models of asthma; ZD018 1 mg/kg i.p., day 31, 24 hours after the last challenge, Mch 0-50 g/L, compared with control group G2 (FIG. 7)): effectively inhibit
